# Data taken from article PMC10224441, “Structural Manipulations of Marine Natural Products Inspire a New Library of 3-Amino-1,2,4-Triazine PDK Inhibitors Endowed with Antitumor Activity in Pancreatic Ductal Adenocarcinoma” (Marine Drugs, 2023).
# Assays:
# recombinant human PDK1 = target: T1, recombinant human PDK1 (Homo sapiens, UniProt Q15118); assay: PDK1 ADPGlo Kinase Assay; format: biochemical; conditions: for inhibition of PDK1 enzymatic activity: 1.5 µM compound, 30 min, room temperature; for IC50: isolated PDK1 isoform, four-parameter logistic model, mean of 3 independent experiments, read-out: IC50 (µM) ± S.D. PDK1
# T1 construct: purchased Abcam
# Experimental: The ability of the tested compounds to hamper the activity of PDK1-4 isoforms was firstly evaluated by means of a chemioluminescent assay, the ADPGlo™ Kinase Assay kit (Promega Corporation, Madison, WI, USA).
# (§1) The in vitro inhibitory activity of tested compounds on recombinant human PDK1-4 isoforms (Abcam, Cambridge, MA, USA) was evaluated by using the ADPGlo™ Kinase Assay kit from Promega (Promega Corporation, Madison, WI, USA) following the instructions of the manufacturer, as previously described.
# recombinant human PDK4 = target: T2, recombinant human PDK4 (Homo sapiens, UniProt Q16654); assay: PDK4 ADPGlo Kinase Assay; format: biochemical; conditions: 1.5 µM compound, 30 min, room temperature
# T2 construct: purchased Abcam
# Experimental: The ability of the tested compounds to hamper the activity of PDK1-4 isoforms was firstly evaluated by means of a chemioluminescent assay, the ADPGlo™ Kinase Assay kit (Promega Corporation, Madison, WI, USA). The results obtained by incubating PDK1-4 isoforms for 30 min at room temperature with 1.5 µM of tested compounds are depicted in Figure 3 panel A as a heat-map summary of the inhibition percentage on PDK1-4 enzymatic activity. All the newly synthesized compounds were able to inhibit the pyruvate dehydrogenase kinases, although to a different extent and showing a preferential activity towards the PDK1 and PDK4 isoforms. […] Conversely, all tested 1,2,4-triazin-3-amines were barely effective in blocking PDK2 activity at 1.5 µM concentration. In addition, IC50 values on the PDK1 isoform were also calculated for all synthesized derivatives and the results are shown in Table 2.
# as §1
# recombinant human HSP90 = recombinant human HSP90 (Homo sapiens, UniProt P07900); assay: HSP90 inhibition assay (Transcreener ADP kit); format: biochemical; conditions: for IC50: isolated HSP90, four-parameter logistic model, mean of 3 independent experiments, read-out: IC50 (µM) ± S.D. HSP90
# Experimental: Since the ATP binding pockets in PDKs and HSP90 are similar and taking into consideration that these 1,2,4-triazine derivatives conserved a chemical scaffold resembling that of the well-known Hsp90 inhibitor Ganetespib, the most performant PDK inhibitors 4d, 4f, 4h, 5d, 5f, 5h and 5j were also screened for their ability to target HSP90.
# The in vitro inhibitory activity of tested compounds on recombinant human HSP90 was assessed by The Transcreener™ ADP kit (Bellbrook Labs, Madison, WI, USA) according to the manufacturer’s protocol as previously described.
# [1] = system: BxPC-3 cells (KRAS-wild-type PDAC); assay: 2D cytotoxicity, MTT assay, BxPC-3; format: cell-based; conditions: Homo sapiens, BXPC-3; 72 h exposure, MTT test, 2D culture; read-out: IC50 (µM) ± S.D. BxPC-3 (2D)
# Experimental: (§2) All newly developed 1,2,4-amino-triazine compounds were screened for their cytotoxic activity against two human PDAC cell lines, namely, a KRAS-wild-type PDAC cell line (BxPC-3 cells) and a KRAS-mutant PDAC cell line (PSN-1 cells). […] The cytotoxicity parameters, expressed in terms of IC50 and obtained after 72 h of drug exposure by MTT assay, are reported in Table 3.
# (§3) All tested compounds were dissolved in DMSO just before the experiment, and a calculated amount of drug solution was added to the cell growth medium to a final solvent concentration of 0.5%, which had no detectable effects on cell viability.
# (§4) Human pancreatic PSN-1 and BxPC-3 carcinoma cell lines were obtained by American Type Culture Collection (ATCC, Rockville, MD, USA). Cell lines were maintained in the logarithmic phase at 37 °C in a 5% carbon dioxide atmosphere using RPMI-1640 medium (EuroClone) containing 10% fetal calf serum (EuroClone, Milan, Italy), antibiotics (50 units/mL penicillin and 50 μg/mL streptomycin) and 2 mM l-glutamine.
# (§5) The growth inhibitory effect on tumor cells was evaluated by means of MTT assay. Briefly, 5 × 10^3 cells/well were seeded in 96-well microplates in a growth medium (100 μL). After 24 h, the medium was removed and replaced with a fresh one containing the compound to be studied at the appropriate concentration. Triplicate cultures were established for each treatment. After 72 h, each well was treated with 10 μL of a 5 mg/mL MTT saline solution, and following 5 h of incubation, 100 μL of a sodium dodecyl sulfate (SDS) solution in HCl 0.01 M was added. After overnight incubation, cell growth inhibition was detected by measuring the absorbance of each well at 570 nm using a Bio-Rad 680 microplate reader. The mean absorbance for each drug dose was expressed as a percentage of the control untreated well absorbance and plotted vs. drug concentration. IC50 values, the drug concentrations that reduce the mean absorbance at 570 nm to 50% of those in the untreated control wells, were calculated by the four-parameter logistic (4-PL) model. The evaluation was based on means from at least four independent experiments.
# [2] = system: PSN-1 cells (KRAS-mutant PDAC); assay: 2D cytotoxicity, MTT assay, PSN-1; format: cell-based; conditions: Homo sapiens, PSN1; 72 h exposure, MTT test, 2D culture; read-out: IC50 (µM) ± S.D. PSN-1 (2D)
# Experimental: as §2, §3, §4, §5
# BxPC-3 spheroids = assay: 3D spheroid cytotoxicity, acid phosphatase (APH) assay, BxPC-3; format: cell-based; conditions: Homo sapiens, 72 h, acid phosphatase (APH) test, read-out: IC50 (µM) ± S.D. BxPC-3 (3D spheroids)
# PSN-1 spheroids = assay: 3D spheroid cytotoxicity, acid phosphatase (APH) assay, PSN-1; format: cell-based; conditions: Homo sapiens, PSN1, 72 h, acid phosphatase (APH) test, read-out: IC50 (µM) ± S.D. PSN-1 (3D spheroids)
# Experimental: Prompted by these encouraging results, we also screened the newly developed 1,2,4-triazine compounds against 3D spheroids of PDAC KRAS wild-type and mutant cells, to further estimate their anticancer potential in a more predictive environment. […] The PDAC cancer spheroids were treated with tested compounds for 72 h, and cell viability was assessed by means of the acid phosphatase (APH) assay (Table 3). The efficacy of gemcitabine as well as of DCA and DAP was assessed under the same experimental conditions.
# Spheroid cultures were obtained by seeding 2.5 × 10^3 PSN-1 cancer cells/well in a round-bottom non-treated tissue culture 96-well plate (Greiner Bio-one, Kremsmünster, Austria) in phenol red-free RPMI-1640 medium (Sigma Chemical Co, St. Louis, MO, USA) containing 10% fetal calf serum and supplemented with 20% methylcellulose stock solution.
# An APH-modified assay was used for determining cell viability in 3D spheroids, as previously described. Briefly, the pre-seeded spheroids were treated with fresh medium containing the compound to be studied at the appropriate concentration (range 2.5–200 μM). Triplicate cultures were established for each treatment. After 72 h, each well was treated with 100 μL of the assay buffer (0.1 M sodium acetate, 0.1% Triton-X-100, supplemented with ImmunoPure p-nitrophenyl phosphate; Sigma Chemical Co.) and, following 3 h of incubation, 10 μL of 1 M NaOH solution were added. The inhibition of the cell growth induced by the tested compounds was detected by measuring the absorbance of each well at 405 nm, using a Bio-Rad 680 microplate reader. The mean absorbance for each drug dose was expressed as a percentage of the control untreated well absorbance (T/C) and plotted vs. drug concentration. IC50 values, the drug concentrations that reduce the mean absorbance at 405 nm 50% of those in the untreated control wells, were calculated by the four-parameter logistic (4-PL) model. The evaluation was based on means from at least four independent experiments.
# T1 sequence (Q15118 29-436): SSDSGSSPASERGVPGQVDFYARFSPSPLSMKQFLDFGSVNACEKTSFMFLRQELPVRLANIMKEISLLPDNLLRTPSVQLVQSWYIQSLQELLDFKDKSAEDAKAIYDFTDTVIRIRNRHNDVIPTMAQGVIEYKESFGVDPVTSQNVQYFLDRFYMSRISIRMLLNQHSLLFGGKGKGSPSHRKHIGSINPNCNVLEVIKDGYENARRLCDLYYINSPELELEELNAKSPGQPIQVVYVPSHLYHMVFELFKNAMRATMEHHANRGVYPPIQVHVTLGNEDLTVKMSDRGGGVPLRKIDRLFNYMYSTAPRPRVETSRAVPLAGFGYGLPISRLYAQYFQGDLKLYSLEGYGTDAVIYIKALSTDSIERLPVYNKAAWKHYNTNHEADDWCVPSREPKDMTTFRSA
# T2 sequence (Q16654 whole entry): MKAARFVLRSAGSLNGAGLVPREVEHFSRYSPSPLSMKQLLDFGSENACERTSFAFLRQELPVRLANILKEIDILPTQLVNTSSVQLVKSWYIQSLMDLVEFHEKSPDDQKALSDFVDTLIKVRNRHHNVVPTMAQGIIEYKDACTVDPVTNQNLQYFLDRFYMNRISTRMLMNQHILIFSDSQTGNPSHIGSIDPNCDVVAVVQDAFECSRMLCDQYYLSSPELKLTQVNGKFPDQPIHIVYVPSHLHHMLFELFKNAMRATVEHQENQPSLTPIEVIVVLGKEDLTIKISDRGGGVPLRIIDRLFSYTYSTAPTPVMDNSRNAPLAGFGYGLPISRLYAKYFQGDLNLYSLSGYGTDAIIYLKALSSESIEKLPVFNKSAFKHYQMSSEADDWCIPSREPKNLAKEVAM
inhibition of PDK1 enzymatic activity (recombinant human PDK1),IC50 (recombinant human PDK1),inhibition of PDK4 enzymatic activity (recombinant human PDK4),inhibition of HSP90 enzyme activity (recombinant human HSP90; 1.5 µM compound),IC50 (recombinant human HSP90),melting point,decrease of HSP90 catalytic activity (recombinant human HSP90; 1.5 µM compound (equi-doses)),Structure (SMILES),IC50 [1],IC50 [2],IC50 (BxPC-3 spheroids),IC50 (PSN-1 spheroids)
totally hampered,0.05 ± 0.03 µM,completely suppress,completely abolish,0.09 ± 0.03 µM,311.1 °C,–,"Cn1cc(-c2nc(N)nnc2-c2cn(C)c3ncc(Br)cc23)c2cc(F)ccc21 [5h, 6-(5-Bromo-1-methyl-1H-pyrrolo[2,3-b]pyridin-3-yl)-5-(5-fluoro-1-methyl-1H-indol-3-yl)-1,2,4-triazin-3-amine]",0.05 ± 0.03 µM,27.4 ± 5.1 µM,208 ± 12.7 µM,132 ± 5.9 µM
totally hampered,0.04 ± 0.02 µM,completely suppress,–,0.18 ± 0.04 µM,269.8 °C,60–80%,"COc1ccc2c(c1)c(-c1nc(N)nnc1-c1cn(C)c3ncc(Br)cc13)cn2C [5j, 6-(5-Bromo-1-methyl-1H-pyrrolo[2,3-b]pyridin-3-yl)-5-(5-methoxy-1-methyl-1H-indol-3-yl)-1,2,4-triazin-3-amine]",0.04 ± 0.02 µM,0.1 ± 0.03 µM,79.5 ± 5.4 µM,89.7 ± 5.7 µM
